system: G. duodenalis BRIS/91/HEPU/1279; assay: Primary Giardia screen at 10 µM (live-cell imaging, automated counting); type: cell-based, Giardia duodenalis; conditions: 24 h
In short: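 Singlicate, 10 μM final, 0.2% DMSO; sealed chambers, 3% O2/5% CO2/N2. Counts by live-cell imaging at 24 h and 48 h. % growth vs vehicle, media background subtracted; Z' per plate.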

Compared with `CCCNC(=O)N1CCN(c2nc3ccccc3n3cccc23)CC1` [SN00793136], `COc1ccc(Nc2cc(C)nc(N3CCN(C(=O)c4ccccc4)CC3)n2)cc1` [SN00793485] is higher in “Average % Inhibition 24h” value: 3.9% for the first, 5.5% for the second.

same assay, conditions: 24 h, first singlicate assay

Going from `CCCNC(=O)N1CCN(c2nc3ccccc3n3cccc23)CC1` [SN00793136] to `COc1ccc(Nc2cc(C)nc(N3CCN(C(=O)c4ccccc4)CC3)n2)cc1` [SN00793485], the “% Inhibition n=1 24h” value rises from 7.8% to 11.1%.

same assay, conditions: 24 h, re-assessment

`CCCNC(=O)N1CCN(c2nc3ccccc3n3cccc23)CC1` [SN00793136] and `COc1ccc(Nc2cc(C)nc(N3CCN(C(=O)c4ccccc4)CC3)n2)cc1` [SN00793485] are the same in “% Inhibition n=2 24h” value: 0.0% for the first, 0.0% for the second.

same assay, conditions: 48 h

Going from `CCCNC(=O)N1CCN(c2nc3ccccc3n3cccc23)CC1` [SN00793136] to `COc1ccc(Nc2cc(C)nc(N3CCN(C(=O)c4ccccc4)CC3)n2)cc1` [SN00793485], the “Average % Inhibition 48h” value rises from 22.4% to 29.3%.

same assay, conditions: 48 h, first singlicate assay

Going from `CCC(=O)N1CCCc2ccc(NS(=O)(=O)c3ccc(F)c(C)c3)cc21` [SN00792263] to `O=C(C1CCC1)N1CCCc2cc(S(=O)(=O)Nc3ccccc3)ccc21` [SN00793348], the “% Inhibition n=1 48h” value falls from 17.5% to 0.0%.

First: O=C(NCc1cccc(Br)c1)c1ncoc1-c1cccs1 [SN00792278]
Second: CCn1cc(C(=O)NCc2ccccc2)c(=O)c2ccc(C)nc21 [SN00792575]
The “% Inhibition n=1 48h” value of the first is higher: 6.4% for the first, 6.1% for the second.

First: O=C(NCc1ccccc1Cl)c1cc2n(n1)CCCN(Cc1ccc(F)cc1)C2=O [SN00792328]
Second: CCOC(=O)Cc1ccc(NC(=O)N2CCC3(CC2)N=C(c2ccc(F)cc2)C(=O)N3)cc1 [SN00792712]
The “% Inhibition n=1 48h” value of the first is lower: 0.0% for the first, 14.3% for the second.

Going from `CCOC(=O)CNC(=O)N1Cc2c(C)nn(-c3ccccc3)c2-n2cccc2C1c1cccc(F)c1` (stereo not drawn) [SN00792341] to `COc1cccc(CNC(=O)Cn2nc(C(=O)Nc3ccccc3)ccc2=O)c1` [SN00793567], the “% Inhibition n=1 48h” value falls from 8.0% to 4.7%.

Compared with `Cn1cc(-c2cc3n(n2)CCC(=O)N3CC(=O)N2CCC3(CC2)OCCO3)c2ccccc21` [SN00792412], `CCC(=O)N1CCC2(CC1)N=C(c1cccc(OC)c1)C(=O)N2` [SN00792731] is higher in “% Inhibition n=1 48h” value: 10.8% for the first, 18.9% for the second.

Going from `Cc1cccc(CN2CCC3(CC2)N=C(c2ccc(C)c(C)c2)C(=O)N3)c1` [SN00792562] to `Cc1cccc(C2=NC3(CCN(C(=O)NC4CCCCC4)CC3)NC2=O)c1` [SN00792717], the “% Inhibition n=1 48h” value rises from 12.3% to 13.8%.

First: CCOc1ccc(S(=O)(=O)Nc2cccc(-c3ccc(OC)nn3)c2)cc1 [SN00792604]
Second: COc1ccc(-c2cc3c(=O)n(Cc4cccc(F)c4)ccn3n2)cc1 [SN00793208]
The “% Inhibition n=1 48h” value of the first is higher: 10.8% for the first, 0.0% for the second.

First: Cc1ccc(NS(=O)(=O)c2cn(C)c(C)n2)c(Br)c1 [SN00792660]
Second: Cc1cccc(Cn2c(CNS(=O)(=O)c3ccccc3)nc3cccnc32)c1 [SN00793267]
The “% Inhibition n=1 48h” value of the first is higher: 25.8% for the first, 9.9% for the second.

Compared with `CC1Cc2ccccc2N1C(=O)c1cc(-c2cccnc2)[nH]n1` (stereo not drawn) [SN00792679], `O=C(NCc1ccc2c(c1)CCN2C(=O)c1ccccc1)c1n[nH]c2c1CCc1ccccc1-2` [SN00793591] is lower in “% Inhibition n=1 48h” value: 19.0% for the first, 5.7% for the second.

Compared with `CN1CCN(CCNC(=O)CN2C(=O)C3CCCCN3c3ccc(C(=O)N4CCCC4)cc32)CC1` (stereo not drawn) [SN00792767], `O=C(NCc1ccc2c(c1)CCN2C(=O)c1ccccc1)C1CCN(S(=O)(=O)N2CCCC2)CC1` [SN00793589] is lower in “% Inhibition n=1 48h” value: 13.0% for the first, 7.9% for the second.

Compared with `O=S(=O)(c1cccc(F)c1)N1CC(OCc2cccc(F)c2)C1` [SN00792818], `O=[N+]([O-])c1cccc(S(=O)(=O)N2CCCCCC2c2cccs2)c1` (stereo not drawn) [SN00793864] is higher in “% Inhibition n=1 48h” value: 10.0% for the first, 25.8% for the second.

Compared with `CSc1ccc(CCNC(=O)c2ccc3c(c2)nc2n3CCOC2)cc1` [SN00792852], `CCn1c(=O)c(=O)n(CC(=O)NCc2ccc(SC)cc2)c2ccccc21` [SN00792977] is higher in “% Inhibition n=1 48h” value: 12.8% for the first, 16.0% for the second.

`CCN(CC)S(=O)(=O)c1ccc2c(c1)cc(C(=O)NC1CCCC1)n2C` [SN00792862] and `CN(C)S(=O)(=O)c1ccc2c(c1)cc(C(=O)NCCCN1CCc3ccccc3C1)n2C` [SN00792874] are the same in “% Inhibition n=1 48h” value: 0.0% for the first, 0.0% for the second.

Going from `Cc1ccc(CNC(=O)Cn2c(C)cc(C)c(-c3nc(-c4ccccc4)no3)c2=O)cc1` [SN00792891] to `Cc1ccc(NC(=O)Cn2c(C)cc(C)c(-c3nc(-c4ccc5c(c4)OCO5)no3)c2=O)cc1` [SN00792912], the “% Inhibition n=1 48h” value rises from 0.0% to 3.6%.

First: COc1ccccc1-c1cc(C(=O)Nc2sc(Nc3ccccc3)nc2C(N)=O)[nH]n1 [SN00792956]
Second: COc1ccc(Nc2cc(C)nc(N3CCN(C(=O)c4ccccc4)CC3)n2)cc1 [SN00793485]
The “% Inhibition n=1 48h” value of the first is lower: 11.1% for the first, 58.6% for the second.

First: O=C(Cn1c(=O)c(=O)n(Cc2ccccc2)c2ccccc21)NCCCN1CCCC1 [SN00792985]
Second: CC(C)OCCCNC(=O)Cn1c(=O)c(=O)n(Cc2ccncc2)c2ncccc21 [SN00793629]
The “% Inhibition n=1 48h” value of the first is higher: 20.3% for the first, 13.1% for the second.

Going from `COc1ccc(NC(=O)N2CCC3(CC2)Nc2cc(C)ccc2-n2cccc23)cc1` [SN00793004] to `Cc1ccc(NC(=O)c2ccc(=O)n(CCN3CCOCC3)n2)cc1` [SN00793573], the “% Inhibition n=1 48h” value falls from 10.6% to 2.3%.

First: CCc1ccc(C2=Nc3ncnn3/C2=N/Cc2ccc(F)cc2)cc1 [SN00793051]
Second: CC(C)CC(=O)NCc1nc2cccnc2n1Cc1ccc(F)cc1 [SN00793251]
The “% Inhibition n=1 48h” value of the first is lower: 1.3% for the first, 8.4% for the second.

First: CC(C)c1ccc(-c2noc(N3CCC(C(=O)N4CCN(C5CCCCC5)CC4)CC3)n2)cc1 [SN00793072]
Second: Cc1nc(-c2ccc(C(=O)N3CCCC3C(=O)Nc3ccc(C(C)C)cc3)cc2)no1 (stereo not drawn) [SN00793315]
The “% Inhibition n=1 48h” value of the first is higher: 11.6% for the first, 0.0% for the second.

Compared with `CCCNC(=O)N1CCN(c2nc3ccccc3n3cccc23)CC1` [SN00793136], `Cc1cccc(NC(=O)N2CCN(c3nc(C)cc(N4CCN(C)CC4)n3)CC2)c1` [SN00793530] is lower in “% Inhibition n=1 48h” value: 44.8% for the first, 17.4% for the second.

Compared with `Cc1c(C(=O)O)sc2ncnc(NC3CCCCCC3)c12` [SN00793181], `Cc1nc(N2CCCC2)c2c(C)c(C(=O)Nc3ccccc3Cl)sc2n1` [SN00793643] is higher in “% Inhibition n=1 48h” value: 3.6% for the first, 49.2% for the second.

Going from `Cc1sc2ncn(CC3CCCO3)c(=O)c2c1C(=O)Nc1ccc(S(N)(=O)=O)nc1` (stereo not drawn) [SN00793191] to `Cc1nc(-c2ccc(C(=O)N3CCCC3C(=O)Nc3ccc(C)c(Cl)c3)cc2)no1` (stereo not drawn) [SN00793320], the “% Inhibition n=1 48h” value rises from 0.0% to 16.2%.

Compared with `COc1cccc(Cn2c(CNC(=O)CCc3c(C)noc3C)nc3cccnc32)c1` [SN00793247], `CCCOc1ccc(CN2CCCC2c2c(C)noc2C)cc1` (stereo not drawn) [SN00793908] is lower in “% Inhibition n=1 48h” value: 17.5% for the first, 16.7% for the second.

Compared with `CC(=O)N1CCCc2cc(S(=O)(=O)N3CCN(c4ccc(F)cc4)CC3)ccc21` [SN00793330], `COc1ccc(C(C)(C)C)cc1S(=O)(=O)N1CCN(c2nc(C)cc(N3CCOCC3)n2)CC1` [SN00793559] is higher in “% Inhibition n=1 48h” value: 0.2% for the first, 5.9% for the second.

Compared with `Cc1ccc(-c2nc3ncccn3c2NC(=O)c2ccc(C(F)(F)F)cc2)cc1` [SN00793355], `Cc1nc(S(=O)(=O)c2ccc(Br)cc2)c(NCc2ccccc2)o1` [SN00793357] is higher in “% Inhibition n=1 48h” value: 13.4% for the first, 27.4% for the second.

Going from `Cn1cnc2cc(-c3noc(C4CCCO4)n3)ccc21` (stereo not drawn) [SN00793699] to `CCc1cc(C2CCCN2C(=O)Cc2ccccc2F)on1` (stereo not drawn) [SN00793836], the “% Inhibition n=1 48h” value falls from 22.8% to 10.7%.

Compared with `CCc1cc(C2CCCN2C(=O)c2cnn3c(C(F)(F)F)cc(-c4cccs4)nc23)on1` (stereo not drawn) [SN00793821], `CCc1onc(C)c1C1CCCN1C(=O)c1ccc2c(c1)OCO2` (stereo not drawn) [SN00793852] is higher in “% Inhibition n=1 48h” value: 1.7% for the first, 6.6% for the second.

First: O=[N+]([O-])c1ccc(S(=O)(=O)N2CCCCCC2c2cccs2)cc1 (stereo not drawn) [SN00793856]
Second: CCc1onc(C)c1C1CCCN1S(=O)(=O)c1ccc(CC(C)C)cc1 (stereo not drawn) [SN00793887]
The “% Inhibition n=1 48h” value of the first is higher: 39.9% for the first, 26.3% for the second.

same assay, conditions: 48 h, re-assessment

`CCCNC(=O)N1CCN(c2nc3ccccc3n3cccc23)CC1` [SN00793136] and `COc1ccc(Nc2cc(C)nc(N3CCN(C(=O)c4ccccc4)CC3)n2)cc1` [SN00793485] are the same in “% Inhibition n=2 48h” value: 0.0% for the first, 0.0% for the second.

— article PMC9775191, “A Subset Screen of the Compounds Australia Scaffold Library Identifies 7-Acylaminodibenzoxazepinones as Potent and Selective Hits for Anti-Giardia Drug Discovery” (Biomedicines, 2022)
